The record followed here is paper PMC7092826 (Biochemical Pharmacology, 2008).

Several values for one entry are separate records, joined by “and”; a condition that tells them apart may be missing. Equal entries are not always repeated. A value given as a limit tells only on which side of the number the result lay.

Assay [1] concerns the target T1, SARS-CoV PLpro (Severe acute respiratory syndrome coronavirus, UniProt P0C6U8). Nature of the assay: biochemical. The assay is classed as biochemical. The note with it: for Ki: Kis.
A further assay concerns the target T2, cathepsin K (Homo sapiens, UniProt P43235).
T2 sequence (P43235 115-329): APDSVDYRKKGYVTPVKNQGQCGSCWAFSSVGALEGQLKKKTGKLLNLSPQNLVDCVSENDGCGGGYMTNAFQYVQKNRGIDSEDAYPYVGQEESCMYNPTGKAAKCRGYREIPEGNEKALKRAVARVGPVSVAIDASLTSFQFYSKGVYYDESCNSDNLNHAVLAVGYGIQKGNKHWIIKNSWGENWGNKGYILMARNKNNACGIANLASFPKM
It counts as biochemical.

Another assay has as its target T3, papain (Carica papaya, UniProt P00784).
T3 sequence (P00784 134-345): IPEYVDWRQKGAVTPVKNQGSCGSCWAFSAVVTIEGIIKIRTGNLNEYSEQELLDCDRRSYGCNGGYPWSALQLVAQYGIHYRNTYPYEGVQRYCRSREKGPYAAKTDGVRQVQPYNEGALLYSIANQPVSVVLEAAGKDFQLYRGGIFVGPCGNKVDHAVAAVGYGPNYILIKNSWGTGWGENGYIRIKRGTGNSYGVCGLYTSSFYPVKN
It counts as biochemical.

Another assay addresses cathepsin L (Homo sapiens, UniProt P07711). It counts as biochemical.
Assay [2] addresses T1, SARS-CoV PLpro. Put plainly: biochemical. The assay is classed as biochemical. The note with it: for remaining activity at 200 µM: read-out: residual activity of PLpro.
The target in assay [3] is T1, SARS-CoV PLpro. Put plainly: biochemical. The assay is classed as biochemical.
The target of the next assay is cathepsin B (Homo sapiens, UniProt P07858). The assay is classed as biochemical.
The next assay concerns the target cathepsin S (Homo sapiens, UniProt P25774). It counts as biochemical.
Assay [4] addresses T1, SARS-CoV PLpro. The assay is classed as biochemical.
For assay [5], the target named is T1, SARS-CoV PLpro. The assay is classed as biochemical. The source holds these as a separate data set.
The next assay concerns the target SARS-CoV 3CLpro (Severe acute respiratory syndrome coronavirus, UniProt P0C6U8). Put plainly: biochemical. The settings on record: read-out: residual activity of 3CLpro.

Chain of cathepsin S (P25774 115-331): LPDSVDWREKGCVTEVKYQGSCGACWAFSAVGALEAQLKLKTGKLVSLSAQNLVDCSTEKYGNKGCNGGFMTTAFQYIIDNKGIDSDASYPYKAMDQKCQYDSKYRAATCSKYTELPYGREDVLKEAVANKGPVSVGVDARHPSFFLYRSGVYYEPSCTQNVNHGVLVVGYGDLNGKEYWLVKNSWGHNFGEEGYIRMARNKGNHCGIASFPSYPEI
Chain of cathepsin L (P07711 114-333, species assumed): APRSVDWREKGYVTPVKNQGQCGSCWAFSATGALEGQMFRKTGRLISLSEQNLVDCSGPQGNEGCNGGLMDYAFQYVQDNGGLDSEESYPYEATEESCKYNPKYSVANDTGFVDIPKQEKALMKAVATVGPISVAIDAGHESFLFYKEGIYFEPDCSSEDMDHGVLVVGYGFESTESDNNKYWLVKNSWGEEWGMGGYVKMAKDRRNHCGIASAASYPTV

Turning to `Sc1ncnc2nc[nH]c12` [compound 1, 6-Mercaptopurine], on SARS-CoV PLpro [1], the inhibition pattern result was “competitive”; the kcat amounted to 0.13 ± 0.01 s⁻¹; the Ki is 19 µM and 19.2 µM. Also, the “inhibition of cathepsin K” value against cathepsin K is listed as “not effective inhibitors”. For the same molecule, on papain, the inhibition of papain result is “not effective inhibitors”. Moreover, the “inhibition of cathepsin L” value against cathepsin L is given as “not effective inhibitors”. Also, on SARS-CoV PLpro [2], the binding mechanism entry is “slow-binding inhibitors”, the kmax is 1.2 ± 0.1 10^−4 s^−1, the kmax of inactivation was 0.12 ms^−1 and the remaining activity at 200 µM was < 5%. The same molecule came in with an IC50 on SARS-CoV PLpro [3] of 21.6 ± 1.8 µM. Besides, at cathepsin B, the “inhibition of cathepsin B” value is reported as “not effective inhibitors”. Further, on cathepsin S, the “inhibition of cathepsin S” value is “not effective inhibitors”. Further, the “enzymatic activity after gel filtration of the inhibited enzyme (reversibility)” value at SARS-CoV PLpro [4] is reported as “restored”. For the same molecule, at SARS-CoV PLpro [5], the “inhibition of the deubiquitinating activity of PLpro” value is reported as “effectively inhibited”.
Take `Nc1nc2nc[nH]c2c(=S)[nH]1` [compound 2, 6-Thioguanine]: on SARS-CoV PLpro [1], the inhibition pattern entry was “competitive”, the catalytic constant (kcat) amounted to 0.14 ± 0.02 s⁻¹ and the Ki is 13 ± 2.8 µM. Also, the “inhibition of cathepsin K” value at cathepsin K is on record as “not effective inhibitors”. Besides, the inhibition of papain result against papain is “not effective inhibitors”. The “inhibition of cathepsin L” value against cathepsin L is on record as “not effective inhibitors”. In addition, at SARS-CoV PLpro [2], the binding mechanism entry was “slow-binding inhibitors”, the kmax is reported as 9.2 ± 0.9 10^−4 s^−1, the kmax of inactivation was found to be 0.92 ms^−1 and the remaining activity at 200 µM is < 5%. This molecule displayed a half-inhibitory concentration (IC50) on SARS-CoV PLpro [3] of 5 ± 1.7 µM. The “inhibition of cathepsin B” value against cathepsin B is given as “not effective inhibitors”. Moreover, the remaining activity at 200 µM on SARS-CoV 3CLpro worked out at 25%. Moreover, the “inhibition of cathepsin S” value on cathepsin S is given as “not effective inhibitors”. Further, the “enzymatic activity after gel filtration of the inhibited enzyme (reversibility)” value at SARS-CoV PLpro [4] is listed as “restored”. Further, the “inhibition of the deubiquitinating activity of PLpro” value on SARS-CoV PLpro [5] is recorded as “effectively inhibited”.
Consider `O=c1[nH]cnc2nc[nH]c12` [compound 3, Hypoxanthine], for which the “inhibitory activity against PLpro” value at SARS-CoV PLpro [3] is listed as “devoid of inhibitory activity”.
On the same count and under the same terms, to `CSc1ncnc2nc[nH]c12` [compound 4, 6-Methyl-mercaptopurine] belongs “devoid of inhibitory activity”.
On to `CCN1C(=O)C=CC1=O` [compound 6, N-ethylmaleimide], for which inhibition at SARS-CoV PLpro [3] was half-maximal at 4.4 ± 1 µM (IC50).
